Reference: PubChem BioAssay (NCI)
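1) Cells in 96-well plates. 2) Compound, 48 h, 5 concentrations. 3) Linear interpolation between surrounding doses. 4) Unreached endpoint = highest concentration. Here, GI50 denotes the concentration required for 50% inhibition of growth. TGI is the concentration that stops growth completely.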

Assays:
Assay in all cases: inhibition of tumour cell growth, NCI panel, 48 h
EKVX NSCLC = test system: EKVX NSCLC
SK-OV-3 ovarian = test system: SK-OV-3 ovarian
OVCAR-4 ovarian = test system: OVCAR-4 ovarian
NCI-H23 lung = test system: NCI-H23 lung
SK-MEL-28 melanoma = test system: SK-MEL-28 melanoma
HCC-2998 colon = test system: HCC-2998 colon
COLO 205 colon = test system: COLO 205 colon
CCRF-CEM leukemia = test system: CCRF-CEM leukemia
OVCAR-5 ovarian = test system: OVCAR-5 ovarian
NCI/ADR-RES ovarian = test system: NCI/ADR-RES ovarian

SMILES	TGI (EKVX NSCLC) [µM]	TGI (SK-OV-3 ovarian) [µM]	TGI (OVCAR-4 ovarian) [µM]	TGI (NCI-H23 lung) [µM]	TGI (SK-MEL-28 melanoma) [µM]	TGI (HCC-2998 colon) [µM]	TGI (COLO 205 colon) [µM]	TGI (CCRF-CEM leukemia) [µM]	TGI (OVCAR-5 ovarian) [µM]	GI50 (NCI/ADR-RES ovarian) [µM]	TGI (NCI/ADR-RES ovarian) [µM]	GI50 (EKVX NSCLC) [µM]	GI50 (NCI-H23 lung) [µM]	GI50 (SK-MEL-28 melanoma) [µM]	GI50 (COLO 205 colon) [µM]	GI50 (CCRF-CEM leukemia) [µM]	GI50 (OVCAR-5 ovarian) [µM]	GI50 (SK-OV-3 ovarian) [µM]	GI50 (HCC-2998 colon) [µM]
COC(=O)C1Cc2c(n(C)c3ccccc23)C(CCC(=O)O)N1Cc1ccccc1 (stereo not drawn)	> 100	> 100	> 100	80.7	58.2	> 100	71.9	> 100	> 100										
Cc1csc2[n+]1-c1ccccc1N(C(=O)Nc1ccccc1)C(C)C2 (stereo not drawn)	> 100			> 100	> 100		> 100	69.6	99.5	25.1	88.4	> 100	35.8	> 100	> 100	29.5	28.6		
C[N+](C)(C)CC(=O)N/N=C(/C(=O)Nc1ccc(Br)cc1)C1C(=O)NC(=O)NC1=O	> 100	> 100	> 100	> 100	> 100	> 100	> 100	> 100	> 100										
O=C(CCCN1CCC(O)(c2ccc(Cl)cc2)CC1)c1ccc(F)cc1	> 100	> 100	> 100	84.1	36.9		43.2	> 100	> 100		88.8								
O=C1CC(c2ccccc2)=Nc2ccccc2N1	> 100	> 100	> 100	> 100	> 100	> 100	> 100	> 100	> 100										
COc1ccc(-c2nc(-c3ccc(C)cc3)cn3ccnc23)cc1	> 50	> 50		> 50		> 50	> 50	> 50	> 50	2.16	> 50	4.38	> 50		2.87	5.47	28.9	33.5	11.8
O=C(O)[C@H](NS(=O)(=O)c1ccc(F)cc1)c1ccccc1	> 100	> 100	> 100	> 100	> 100	> 100	> 100	> 100	> 100										
CCOC(=O)/C(=C/c1ccc(C(=O)OC)cc1)N(CC)CC	> 100	> 100	> 100	> 100	> 100	> 100	> 100	93.7	> 100										
CC1=C(/C=C/C(C)=C/C2CC(N(C)C)=CC(=O)O2)C(C)(C)CCC1 (stereo not drawn)	27.9	30.3	31.7	27.8	30.9	26.7	27.2	22.3	24.1										
O=C(CSc1nc(-c2ccccc2)c(-c2ccccc2)[nH]1)N/N=C/c1ccc(O)cc1	84.4	65.2		84.3	> 100	61.1	35.1	> 100											
OC(COC(c1ccccc1)(c1ccccc1)c1ccccc1)C(O)CC1SCCS1 (stereo not drawn)	30.7	48.9		40	48.8		38.4	> 100	44		52.9								
